The text below walks through data of ChEMBL document CHEMBL1145511, “Comparative activities of daptomycin, linezolid, and tigecycline against catheter-related methicillin-resistant Staphylococcus bacteremic isolates embedded in biofilm” (2007).

As usually defined, the MIC is the lowest concentration that inhibits growth of the organism.

The structures appear in SMILES notation. In brackets after ≈: the same amount, converted by molar mass. Activity calls are given as the source filed them. No cut-off for these calls is given here.

Assay [1] has as its system Staphylococcus aureus. The assay can be described thus: Antibacterial activity against methicillin-resistant Staphylococcus aureus after 24 hrs by silicone disk biofilm colonization method. It counts as functional, organism-based.
The test system of assay [2] is Staphylococcus aureus. The assay can be described thus: Antibacterial activity against methicillin-resistant Staphylococcus aureus at 4 hrs daily exposure for 2 days. In kind it is functional, organism-based.
The test system of assay [3] is Staphylococcus aureus. The assay can be described thus: Antibacterial activity against methicillin-resistant Staphylococcus aureus at 4 hrs daily exposure for 3 days. It counts as functional, organism-based.
Assay [4] deals with Staphylococcus aureus. The assay can be described thus: Antibacterial activity against methicillin-resistant Staphylococcus aureus at 4 hrs daily exposure for 5 day. In kind it is functional, organism-based.
The subject of assay [5] is Staphylococcus aureus. The assay can be described thus: Antibacterial activity against methicillin-resistant Staphylococcus aureus 4913 at 4 hrs daily exposure for 5 days by broth microdilution method. In kind it is functional. For orientation: Broth dilution looks for growth in wells or tubes with falling amounts of substance.
In assay [6] the test system is Staphylococcus aureus. In words: Antibacterial activity against methicillin-resistant Staphylococcus aureus 4930 at 4 hrs daily exposure for 5 days by broth microdilution method. In kind it is functional.
Assay [7] concerns Staphylococcus aureus. The assay can be described thus: Antibacterial activity against methicillin-resistant Staphylococcus aureus 5098 at 4 hrs daily exposure for 5 days by broth microdilution method. In kind it is functional.
The subject of assay [8] is Staphylococcus aureus. In words: Antibacterial activity against methicillin-resistant Staphylococcus aureus 5004 at 4 hrs daily exposure for 5 days by broth microdilution method. It counts as functional.
In assay [9] the test system is Staphylococcus aureus. In words: Antibacterial activity against methicillin-resistant Staphylococcus aureus 4803 at 4 hrs daily exposure for 1 day by broth microdilution method. It counts as functional.
Assay [10] relates to Staphylococcus aureus. In words: Antibacterial activity against methicillin-resistant Staphylococcus aureus 4913 at 4 hrs daily exposure for 1 day by broth microdilution method. In kind it is functional.
For assay [11], the system named is Staphylococcus aureus. In words: Antibacterial activity against methicillin-resistant Staphylococcus aureus 4930 at 4 hrs daily exposure for 1 day by broth microdilution method. In kind it is functional.
In assay [12] the test system is Staphylococcus aureus. In words: Antibacterial activity against methicillin-resistant Staphylococcus aureus 5098 at 4 hrs daily exposure for 1 day by broth microdilution method. It counts as functional.
Assay [13] has as its system Staphylococcus aureus. In words: Antibacterial activity against methicillin-resistant Staphylococcus aureus 5004 at 4 hrs daily exposure for 1 day by broth microdilution method. It counts as functional.
The test system of assay [14] is Staphylococcus aureus. The assay can be described thus: Antibacterial activity against methicillin-resistant Staphylococcus aureus 859 at 4 hrs daily exposure for 1 day by broth microdilution method. It counts as functional.
The test system of assay [15] is Staphylococcus aureus. In words: Antibacterial activity against methicillin-resistant Staphylococcus aureus 4875 at 4 hrs daily exposure for 1 day by broth microdilution method. It counts as functional.
Assay [16] has as its system Staphylococcus aureus. In words: Antibacterial activity against methicillin-resistant Staphylococcus aureus 4342 at 4 hrs daily exposure for 1 day by broth microdilution method. In kind it is functional.
In assay [17] the test system is Staphylococcus aureus. The assay can be described thus: Antibacterial activity against methicillin-resistant Staphylococcus aureus 293 at 4 hrs daily exposure for 1 day by broth microdilution method. In kind it is functional.
Assay [18] deals with Staphylococcus aureus. The assay can be described thus: Antibacterial activity against methicillin-resistant Staphylococcus aureus 789 at 4 hrs daily exposure for 1 day by broth microdilution method. In kind it is functional.
In assay [19] the test system is Staphylococcus aureus. The assay can be described thus: Antibacterial activity against methicillin-resistant Staphylococcus aureus 4803 at 4 hrs daily exposure for 5 days by broth microdilution method. It counts as functional.
Assay [20] has as its system Staphylococcus aureus. In words: Antibacterial activity against methicillin-resistant Staphylococcus aureus 859 at 4 hrs daily exposure for 5 days by broth microdilution method. It counts as functional.
In assay [21] the test system is Staphylococcus aureus. In words: Antibacterial activity against methicillin-resistant Staphylococcus aureus 4875 at 4 hrs daily exposure for 5 days by broth microdilution method. In kind it is functional.
Assay [22] relates to Staphylococcus aureus. In words: Antibacterial activity against methicillin-resistant Staphylococcus aureus 4342 at 4 hrs daily exposure for 5 days by broth microdilution method. It counts as functional.
Assay [23] has as its system Staphylococcus aureus. The assay can be described thus: Antibacterial activity against methicillin-resistant Staphylococcus aureus 293 at 4 hrs daily exposure for 5 days by broth microdilution method. In kind it is functional.
The subject of assay [24] is Staphylococcus aureus. In words: Antibacterial activity against methicillin-resistant Staphylococcus aureus 789 at 4 hrs daily exposure for 5 days by broth microdilution method. It counts as functional, organism-based.

As to `CN(C)c1ccc(O)c2c1C[C@H]1C[C@H]3[C@H](N(C)C)C(O)=C(C(N)=O)C(=O)[C@@]3(O)C(O)=C1C2=O`, the outcome with Staphylococcus aureus [1] and with Staphylococcus aureus [2] was Active.

Take `CN(C)c1cc(NC(=O)CNC(C)(C)C)c(O)c2c1C[C@H]1C[C@H]3[C@H](N(C)C)C(O)=C(C(N)=O)C(=O)[C@@]3(O)C(O)=C1C2=O`: the result in the assay with Staphylococcus aureus [1] and in the assay with Staphylococcus aureus [3] was Active.

For `CN[C@H](CC(C)C)C(=O)N[C@H]1C(=O)N[C@@H](CC(N)=O)C(=O)N[C@H]2C(=O)N[C@H]3C(=O)N[C@H](C(=O)N[C@H](C(=O)O)c4cc(O)cc(O)c4-c4cc3ccc4O)[C@H](O)c3ccc(c(Cl)c3)Oc3cc2cc(c3O[C@@H]2O[C@H](CO)[C@@H](O)[C@H](O)[C@H]2O[C@H]2C[C@](C)(N)[C@H](O)[C@H](C)O2)Oc2ccc(cc2Cl)[C@H]1O`, the result in the assay with Staphylococcus aureus [4] was inactive.

`CO[C@H]1/C=C/O[C@@]2(C)Oc3c(C)c(O)c4c(O)c(c(/C=N/N5CCN(C)CC5)c(O)c4c3C2=O)NC(=O)/C(C)=C\C=C\[C@H](C)[C@H](O)[C@@H](C)[C@@H](O)[C@@H](C)[C@H](OC(C)=O)[C@@H]1C` [RIFAMPIN]: the MIC with Staphylococcus aureus [5] was 128 µg/mL (≈ 156 µM); in the assay with Staphylococcus aureus [6], less than 0.06 µg/mL; against Staphylococcus aureus [7] it was 128 µg/mL (≈ 156 µM); with Staphylococcus aureus [8], 128 µg/mL (≈ 156 µM); with Staphylococcus aureus [9], less than 0.06 µg/mL; with Staphylococcus aureus [10] it was 128 µg/mL (≈ 156 µM). The MIC in the assay with Staphylococcus aureus [11], against Staphylococcus aureus [12], with Staphylococcus aureus [13], in the assay on Staphylococcus aureus [14], in the assay with Staphylococcus aureus [15] and with Staphylococcus aureus [16] was less than 0.06 µg/mL each time. Also, the MIC in the assay with Staphylococcus aureus [17] was less than 0.06 µg/mL; with Staphylococcus aureus [18] it was less than 0.06 µg/mL; in the assay with Staphylococcus aureus [19], 128 µg/mL (≈ 156 µM); against Staphylococcus aureus [20], 32 µg/mL (≈ 38.9 µM); against Staphylococcus aureus [21] it was 128 µg/mL (≈ 156 µM); against Staphylococcus aureus [22], 128 µg/mL (≈ 156 µM). For the same compound, the MIC against Staphylococcus aureus [23] is 128 µg/mL (≈ 156 µM). Further, in the assay with Staphylococcus aureus [4], the result was inactive. Further, in the assay on Staphylococcus aureus [24], the outcome was Active.

With `CC(=O)NC[C@H]1CN(c2ccc(N3CCOCC3)c(F)c2)C(=O)O1` [LINEZOLID], the MIC against Staphylococcus aureus [5] is 8 µg/mL (≈ 23.7 µM); in the assay with Staphylococcus aureus [9], 0.5 µg/mL (≈ 1.48 µM); in the assay on Staphylococcus aureus [10], 0.5 µg/mL (≈ 1.48 µM); against Staphylococcus aureus [11], 0.5 µg/mL (≈ 1.48 µM); against Staphylococcus aureus [12] it was 0.25 µg/mL (≈ 0.741 µM); in the assay with Staphylococcus aureus [13], 0.5 µg/mL (≈ 1.48 µM). Further, the MIC amounted to 0.5 µg/mL (≈ 1.48 µM) in the assay with Staphylococcus aureus [14]; 0.5 µg/mL (≈ 1.48 µM) in the assay with Staphylococcus aureus [15]; 1 µg/mL (≈ 2.96 µM) against Staphylococcus aureus [16]; 1 µg/mL (≈ 2.96 µM) with Staphylococcus aureus [17]; 0.5 µg/mL (≈ 1.48 µM) against Staphylococcus aureus [18]. Besides, the outcome in the assay on Staphylococcus aureus [6], with Staphylococcus aureus [8], in the assay with Staphylococcus aureus [19], in the assay on Staphylococcus aureus [21], with Staphylococcus aureus [22] and in the assay with Staphylococcus aureus [23] was Active. In addition, the outcome in the assay with Staphylococcus aureus [24] was Active. In addition, the result with Staphylococcus aureus [4] was inactive.

With `CCCCCCCCCC(=O)N[C@@H](Cc1c[nH]c2ccccc12)C(=O)N[C@H](CC(N)=O)C(=O)N[C@@H](CC(=O)O)C(=O)N[C@@H]1C(=O)NCC(=O)N[C@@H](CCCN)C(=O)N[C@@H](CC(=O)O)C(=O)N[C@H](C)C(=O)N[C@@H](CC(=O)O)C(=O)NCC(=O)N[C@H](CO)C(=O)N[C@@H]([C@H](C)CC(=O)O)C(=O)N[C@@H](CC(=O)c2ccccc2N)C(=O)O[C@@H]1C`, the outcome in the assay on Staphylococcus aureus [1] and in the assay with Staphylococcus aureus [2] was Active.
